How the values were obtained:
Assay in all cases: relative viability (nuclei count vs DMSO), 5 days (fraction); higher = more cells survive
EHT 1864 + Linsitinib = compound: C1COCCN1CC2=CC(=O)C(=CO2)OCCCCCSC3=C4C=CC(=CC4=NC=C3)C(F)(F)F [EHT 1864] + C[C@]1(O)C[C@@H](c2nc(-c3ccc4ccc(-c5ccccc5)nc4c3)c3c(N)nccn32)C1 [Linsitinib] (partner 1 µM)
Procedure, shortened: (§1)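 Lung cancer cell lines were seeded in 1536-well plates and dosed by pin tool the next day, with either a single drug or a fixed anchor-drug dose combined with five library-drug doses (not always all listed) spaced in √10 steps. Five days later, one step fixed the cells and stained their nuclei (final 0.05% Triton X-100, 1% formaldehyde, 1 ug/ml Hoechst), and nuclei were counted on 4× images. Relative viability is the nuclei count in treated wells divided by the count in vehicle wells, and each value is the median of duplicate plates.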

EHT 1864 + Pemetrexed = compound: C1COCCN1CC2=CC(=O)C(=CO2)OCCCCCSC3=C4C=CC(=CC4=NC=C3)C(F)(F)F [EHT 1864] + Nc1nc2[nH]cc(CCc3ccc(C(=O)N[C@@H](CCC(=O)O)C(=O)O)cc3)c2c(=O)[nH]1 [Pemetrexed] (partner 0.2 µM)
Procedure, shortened: as §1

EHT 1864 + Vorinostat = compound: C1COCCN1CC2=CC(=O)C(=CO2)OCCCCCSC3=C4C=CC(=CC4=NC=C3)C(F)(F)F [EHT 1864] + O=C(CCCCCCC(=O)Nc1ccccc1)NO [Vorinostat] (partner 1 µM)
Procedure, shortened: as §1

EHT 1864 + Olaparib = compound: C1COCCN1CC2=CC(=O)C(=CO2)OCCCCCSC3=C4C=CC(=CC4=NC=C3)C(F)(F)F [EHT 1864] + O=C(c1cc(Cc2n[nH]c(=O)c3ccccc23)ccc1F)N1CCN(C(=O)C2CC2)CC1 [Olaparib] (partner 8 µM)
Procedure, shortened: as §1

NCI-H1944 showed a relative viability (EHT 1864 + Linsitinib; first compound 0.04 µM) of 1.28, a relative viability (EHT 1864 + Linsitinib; first compound 0.4 µM) of 1.21 and a relative viability (EHT 1864 + Linsitinib; first compound 1.265 µM) of 1.25. For the same cell line, the relative viability (EHT 1864 + Linsitinib; first compound 4 µM) was 1.25, the relative viability (EHT 1864 + Pemetrexed; first compound 0.04 µM) was 0.669 and the relative viability (EHT 1864 + Pemetrexed; first compound 0.4 µM) was 0.64. It also gave a relative viability (EHT 1864 + Pemetrexed; first compound 1.265 µM) of 0.58, a relative viability (EHT 1864 + Pemetrexed; first compound 4 µM) of 0.693 and a relative viability (EHT 1864 + Vorinostat; first compound 0.04 µM) of 0.528. For the same cell line, the relative viability (EHT 1864 + Vorinostat; first compound 0.4 µM) was 0.595, the relative viability (EHT 1864 + Vorinostat; first compound 1.265 µM) was 0.514 and the relative viability (EHT 1864 + Vorinostat; first compound 4 µM) was 0.661. It also gave a relative viability (EHT 1864 + Olaparib; first compound 0.04 µM) of 0.376, a relative viability (EHT 1864 + Olaparib; first compound 0.4 µM) of 0.392 and a relative viability (EHT 1864 + Olaparib; first compound 1.265 µM) of 0.416. It also gave a relative viability (EHT 1864 + Olaparib; first compound 4 µM) of 0.367.

In the case of NCI-H1975, the relative viability (EHT 1864 + Linsitinib; first compound 0.04 µM) is reported as 0.956, the relative viability (EHT 1864 + Linsitinib; first compound 0.1265 µM) is reported as 0.967 and the relative viability (EHT 1864 + Linsitinib; first compound 0.4 µM) is reported as 0.955. For the same cell line, the relative viability (EHT 1864 + Linsitinib; first compound 1.265 µM) was 0.811, the relative viability (EHT 1864 + Linsitinib; first compound 4 µM) was 0.835 and the relative viability (EHT 1864 + Pemetrexed; first compound 0.04 µM) was 0.271. It also gave a relative viability (EHT 1864 + Pemetrexed; first compound 0.1265 µM) of 0.28, a relative viability (EHT 1864 + Pemetrexed; first compound 0.4 µM) of 0.274 and a relative viability (EHT 1864 + Pemetrexed; first compound 1.265 µM) of 0.291. It also gave a relative viability (EHT 1864 + Pemetrexed; first compound 4 µM) of 0.285, a relative viability (EHT 1864 + Vorinostat; first compound 0.04 µM) of 0.726 and a relative viability (EHT 1864 + Vorinostat; first compound 0.1265 µM) of 0.673. For the same cell line, the relative viability (EHT 1864 + Vorinostat; first compound 0.4 µM) was 0.677, the relative viability (EHT 1864 + Vorinostat; first compound 1.265 µM) was 0.654 and the relative viability (EHT 1864 + Vorinostat; first compound 4 µM) was 0.644. For the same cell line, the relative viability (EHT 1864 + Olaparib; first compound 0.04 µM) was 0.812, the relative viability (EHT 1864 + Olaparib; first compound 0.1265 µM) was 0.828 and the relative viability (EHT 1864 + Olaparib; first compound 0.4 µM) was 0.781. It also gave a relative viability (EHT 1864 + Olaparib; first compound 1.265 µM) of 0.791 and a relative viability (EHT 1864 + Olaparib; first compound 4 µM) of 0.719.

With NCI-H1993 the relative viability (EHT 1864 + Linsitinib; first compound 0.04 µM) was 0.735, the relative viability (EHT 1864 + Linsitinib; first compound 0.1265 µM) was 0.757 and the relative viability (EHT 1864 + Linsitinib; first compound 0.4 µM) was 0.709. It also gave a relative viability (EHT 1864 + Linsitinib; first compound 1.265 µM) of 0.778, a relative viability (EHT 1864 + Linsitinib; first compound 4 µM) of 0.695 and a relative viability (EHT 1864 + Pemetrexed; first compound 0.04 µM) of 0.58. For the same cell line, the relative viability (EHT 1864 + Pemetrexed; first compound 0.4 µM) was 0.595, the relative viability (EHT 1864 + Pemetrexed; first compound 1.265 µM) was 0.623 and the relative viability (EHT 1864 + Pemetrexed; first compound 4 µM) was 0.556. The relative viability (EHT 1864 + Vorinostat; first compound 0.04 µM) was 0.896, the relative viability (EHT 1864 + Vorinostat; first compound 0.4 µM) was 0.912 and the relative viability (EHT 1864 + Vorinostat; first compound 1.265 µM) was 0.806. It also gave a relative viability (EHT 1864 + Vorinostat; first compound 4 µM) of 0.863, a relative viability (EHT 1864 + Olaparib; first compound 0.04 µM) of 1.17 and a relative viability (EHT 1864 + Olaparib; first compound 0.4 µM) of 0.971. It also gave a relative viability (EHT 1864 + Olaparib; first compound 1.265 µM) of 0.966 and a relative viability (EHT 1864 + Olaparib; first compound 4 µM) of 1.05.

Work on NCI-H2009 yielded a relative viability (EHT 1864 + Linsitinib; first compound 0.04 µM) of 1.15, a relative viability (EHT 1864 + Linsitinib; first compound 0.1265 µM) of 1.2 and a relative viability (EHT 1864 + Linsitinib; first compound 0.4 µM) of 1.17. The relative viability (EHT 1864 + Linsitinib; first compound 1.265 µM) was 1.24, the relative viability (EHT 1864 + Linsitinib; first compound 4 µM) was 0.897 and the relative viability (EHT 1864 + Pemetrexed; first compound 0.04 µM) was 1.01. For the same cell line, the relative viability (EHT 1864 + Pemetrexed; first compound 0.1265 µM) was 0.95, the relative viability (EHT 1864 + Pemetrexed; first compound 0.4 µM) was 1.01 and the relative viability (EHT 1864 + Pemetrexed; first compound 1.265 µM) was 0.965. For the same cell line, the relative viability (EHT 1864 + Pemetrexed; first compound 4 µM) was 0.809, the relative viability (EHT 1864 + Vorinostat; first compound 0.04 µM) was 0.69 and the relative viability (EHT 1864 + Vorinostat; first compound 0.1265 µM) was 0.698. For the same cell line, the relative viability (EHT 1864 + Vorinostat; first compound 0.4 µM) was 0.72, the relative viability (EHT 1864 + Vorinostat; first compound 1.265 µM) was 0.627 and the relative viability (EHT 1864 + Vorinostat; first compound 4 µM) was 0.612. It also gave a relative viability (EHT 1864 + Olaparib; first compound 0.04 µM) of 0.618, a relative viability (EHT 1864 + Olaparib; first compound 0.1265 µM) of 0.548 and a relative viability (EHT 1864 + Olaparib; first compound 0.4 µM) of 0.702. The relative viability (EHT 1864 + Olaparib; first compound 1.265 µM) was 0.66 and the relative viability (EHT 1864 + Olaparib; first compound 4 µM) was 0.49.

NCI-H2023 gave a relative viability (EHT 1864 + Linsitinib; first compound 0.04 µM) of 0.586, a relative viability (EHT 1864 + Linsitinib; first compound 0.1265 µM) of 0.717 and a relative viability (EHT 1864 + Linsitinib; first compound 0.4 µM) of 0.612. For the same cell line, the relative viability (EHT 1864 + Linsitinib; first compound 1.265 µM) was 0.656, the relative viability (EHT 1864 + Linsitinib; first compound 4 µM) was 0.602 and the relative viability (EHT 1864 + Pemetrexed; first compound 0.04 µM) was 0.232. It also gave a relative viability (EHT 1864 + Pemetrexed; first compound 0.1265 µM) of 0.258, a relative viability (EHT 1864 + Pemetrexed; first compound 0.4 µM) of 0.166 and a relative viability (EHT 1864 + Pemetrexed; first compound 1.265 µM) of 0.201. The relative viability (EHT 1864 + Pemetrexed; first compound 4 µM) was 0.197, the relative viability (EHT 1864 + Vorinostat; first compound 0.04 µM) was 0.692 and the relative viability (EHT 1864 + Vorinostat; first compound 0.1265 µM) was 0.381. It also gave a relative viability (EHT 1864 + Vorinostat; first compound 0.4 µM) of 0.591, a relative viability (EHT 1864 + Vorinostat; first compound 1.265 µM) of 0.699 and a relative viability (EHT 1864 + Vorinostat; first compound 4 µM) of 0.784. The relative viability (EHT 1864 + Olaparib; first compound 0.04 µM) was 0.403, the relative viability (EHT 1864 + Olaparib; first compound 0.1265 µM) was 0.525 and the relative viability (EHT 1864 + Olaparib; first compound 0.4 µM) was 0.411. The relative viability (EHT 1864 + Olaparib; first compound 1.265 µM) was 0.48 and the relative viability (EHT 1864 + Olaparib; first compound 4 µM) was 0.461.

NCI-H2085 showed a relative viability (EHT 1864 + Linsitinib; first compound 0.04 µM) of 0.87, a relative viability (EHT 1864 + Linsitinib; first compound 0.1265 µM) of 0.816 and a relative viability (EHT 1864 + Linsitinib; first compound 0.4 µM) of 0.883. The relative viability (EHT 1864 + Linsitinib; first compound 1.265 µM) was 0.91, the relative viability (EHT 1864 + Linsitinib; first compound 4 µM) was 0.787 and the relative viability (EHT 1864 + Pemetrexed; first compound 0.04 µM) was 0.908. For the same cell line, the relative viability (EHT 1864 + Pemetrexed; first compound 0.1265 µM) was 0.646, the relative viability (EHT 1864 + Pemetrexed; first compound 0.4 µM) was 0.969 and the relative viability (EHT 1864 + Pemetrexed; first compound 1.265 µM) was 0.967. The relative viability (EHT 1864 + Pemetrexed; first compound 4 µM) was 0.882, the relative viability (EHT 1864 + Vorinostat; first compound 0.04 µM) was 0.789 and the relative viability (EHT 1864 + Vorinostat; first compound 0.1265 µM) was 0.577. The relative viability (EHT 1864 + Vorinostat; first compound 0.4 µM) was 0.838, the relative viability (EHT 1864 + Vorinostat; first compound 1.265 µM) was 0.774 and the relative viability (EHT 1864 + Vorinostat; first compound 4 µM) was 0.804. For the same cell line, the relative viability (EHT 1864 + Olaparib; first compound 0.04 µM) was 0.783, the relative viability (EHT 1864 + Olaparib; first compound 0.1265 µM) was 0.762 and the relative viability (EHT 1864 + Olaparib; first compound 0.4 µM) was 0.754. The relative viability (EHT 1864 + Olaparib; first compound 1.265 µM) was 0.732 and the relative viability (EHT 1864 + Olaparib; first compound 4 µM) was 0.713.

Cell Line NCI-H2087 has a relative viability (EHT 1864 + Linsitinib; first compound 0.04 µM) of 0.88, a relative viability (EHT 1864 + Linsitinib; first compound 0.1265 µM) of 0.865 and a relative viability (EHT 1864 + Linsitinib; first compound 0.4 µM) of 0.796. The relative viability (EHT 1864 + Linsitinib; first compound 1.265 µM) was 0.729, the relative viability (EHT 1864 + Linsitinib; first compound 4 µM) was 0.68 and the relative viability (EHT 1864 + Pemetrexed; first compound 0.04 µM) was 0.691. For the same cell line, the relative viability (EHT 1864 + Pemetrexed; first compound 0.4 µM) was 0.596, the relative viability (EHT 1864 + Pemetrexed; first compound 1.265 µM) was 0.642 and the relative viability (EHT 1864 + Pemetrexed; first compound 4 µM) was 0.657. It also gave a relative viability (EHT 1864 + Vorinostat; first compound 0.04 µM) of 0.436, a relative viability (EHT 1864 + Vorinostat; first compound 0.4 µM) of 0.798 and a relative viability (EHT 1864 + Vorinostat; first compound 1.265 µM) of 0.727. It also gave a relative viability (EHT 1864 + Vorinostat; first compound 4 µM) of 0.572, a relative viability (EHT 1864 + Olaparib; first compound 0.04 µM) of 0.545 and a relative viability (EHT 1864 + Olaparib; first compound 0.4 µM) of 0.468. The relative viability (EHT 1864 + Olaparib; first compound 1.265 µM) was 0.545 and the relative viability (EHT 1864 + Olaparib; first compound 4 µM) was 0.534.

Reference: the supplement of paper PMC10307832
